Source: patent US8178490B2, “Polybasic bacterial efflux pump inhibitors and therapeutic uses thereof” (priority 2007, dated 2012)
≈ marks a conversion by molar mass, not a printed value.

What was measured:
[1] = test system: P. aeruginosa PAM1723, overexpressing the MexABOprM efflux pump; format: cell-based, Pseudomonas aeruginosa; conditions: lowest inhibitor concentration giving antibacterial activity with levofloxacin at 1/8 of its MIC
From the text: (§1) EPI activity is defined as concentration of an EPI compound that is necessary to achieve ½ of a maximum theoretical effect in increase of antibiotic susceptibility due to efflux inhibition. The maximum theoretical effect, Emax, is defined as a ratio of antibacterial activity of antibiotics (minimal inhibitory concentration, MIC) of pump overexpressing vs. pump lacking strains. […] The strain PAM1723, overexpressing the MexABOprM efflux pump was used as a test strain. […] Azithromycin was used as test antibiotic to assess the EPI activity in Klebsiella pneumoniae. The strain KPM1004 overexpressing the AcrABTolC efflux pump was used as a test strain. […] Thus, EPI activity, that is assessed in K. pneumoniae, is a concentration of an EPI compound that is necessary to increase susceptibility to azithromicin of KPM1004 sixteen fold.
(§2) The EPI activity of the test compounds was assessed by the checkerboard assay (Antimicrobial Combinations, Antibiotics in Laboratory Medicine, Ed. Victor Lorian, M.D., Fourth edition, 1996, pp 333338, which is incorporated herein by reference in its entirety) using a broth microdilution method performed as recommended by the NCCLS (National Committee for Clinical Laboratory Standards (NCCLS), 1997, Methods for Dilution of Antimicrobial Susceptibility Tests for Bacteria That Grow Aerobically, Fourth Edition; Approved Standard. NCCLS Document M7A4, Vol 17 No. 2, which is incorporated herein by reference in its entirety). […] All EPI compounds were readily soluble in water and stock solutions were prepared at a final concentration of 10 mg/ml. Stock solutions were further diluted, according to the needs of the particular assay, in Mueller Hinton Broth (MHB). Stock solution was stored at −80° C. The checkerboard assay was performed in microtiter plates. […] EPIs were diluted in the axis, each row containing a single concentration of an EPI. […] The assay was performed in MHB with a final bacterial (PAM1723 or […]) inoculum of 5 times 10^5 CFU/ml (from an early log phase culture). Microtiter plates were incubated during 20 h at 35° C. and were read using a microtiter plate reader (Molecular Devices) at 650 nm as well as visual observation using a microtiter plate reading mirror.
(§3) Azithromycin potentiation activities of selected inhibitors for K. pneumoniae are reported as MPC16 values.

[2] = test system: Klebsiella pneumoniae KPM1004 overexpressing the AcrABTolC efflux pump; assay: microbe, parasite or virus in culture; format: cell-based; conditions: for MPC16 (μg/mL) Azithromycin, KPM1004): lowest inhibitor concentration giving antibacterial activity with azithromycin at 1/16 of its MIC, K. pneumoniae KPM1004
From the text: as §1, §2, §3

[3] = test system: Klebsiella pneumoniae KPM1007 which lacks efflux; assay: microbe, parasite or virus in culture; format: cell-based; conditions: read-out: Azithromycin MIC
[4] = Rat serum pharmacokinetics after 1.5-hour IV infusion; format: in vivo; conditions: two-compartment model; for pharmacokinetic profile: […] IV infusion in 0.9% saline, total dose 2, 5, 10 or 20 mg/kg; for Cmax / clearance: 1.5-hour IV infusion in 0.9% saline, dose (mg/kg) differs per compound; for clearance: read-out: Clearance (free drug clearance) (converted)
Method: In the experiment depicted in Table 7, above, rat serum pharmacokinetics of selected inhibitor compounds was evaluated after 1.5-hour IV infusion of 1.5 ml solution of corresponding efflux pump inhibitor in 0.9% saline. Depending on the concentration used the total infused dose was 2, 5, 10 or 20 mg/kg. A two-compartment model was used to fit the data and calculate PK parameters.

For `Cl.Cl.Cl.Cl.NCCN(CCN)C(=S)C(C[C@H](N)C(=O)N[C@H](Cc1ccc(C(F)(F)F)cc1)C(N)=O)c1cnc2ccccc2c1` (stereo partly drawn) [Compound 12, 3-[(1S)-3-[bis(2-azaniumylethyl)carbamothioyl]-1-{[(1R)-1-carbamoyl-2-[4-(trifluoromethyl)phenyl]ethyl]carbamoyl}propan-1-aminium]quinolin-1-ium tetrachloride], the “MPC8 (μg/mL) (Levofloxacin, PAM1723)” value [1] was 1.25 µg/mL and the “MPC16 (μg/mL) Azithromycin, KPM1004)” value [2] was 1.25 µg/mL.
For “3-[(1S)-3-[bis(2-azaniumylethyl)carbamoyl]-1-{[(1S)-1-carbamoyl-2-[4-(trifluoromethyl)phenyl]ethyl](methyl)carbamoyl}propan-1-aminium]quinolin-1-ium tetrachloride [Compound 5]”, the “MPC8 (μg/mL) (Levofloxacin, PAM1723)” value [1] was 0.6 µg/mL.
With “3-[(1S)-3-[bis(2-azaniumylethyl)carbamoyl]-1-{[(1R)-1-carbamoyl-2-[4-(trifluoromethyl)phenyl]ethyl]carbamoyl}propan-1-aminium]quinolin-1-ium tetrachloride [Compound 1]” the “MPC8 (μg/mL) (Levofloxacin, PAM1723)” value [1] was 0.3 µg/mL and the “MPC16 (μg/mL) Azithromycin, KPM1004)” value [2] was 0.6 µg/mL.
With “3-[(1S)-3-[bis(2-azaniumylethyl)carbamoyl]-1-{[(1S)-1-carbamoyl-2-[4-(trifluoromethyl)phenyl]ethyl]carbamoyl}propan-1-aminium]quinolin-1-ium tetrachloride [Compound 28]” the “MPC8 (μg/mL) (Levofloxacin, PAM1723)” value [1] was 1.25 µg/mL and the “MPC16 (μg/mL) Azithromycin, KPM1004)” value [2] was 1.25 µg/mL.
In the case of `Cl.Cl.Cl.Cl.NCCN(CCN)C(=O)C[C@H](Nc1ccc2ncccc2c1)C(=O)N[C@@H](CC1CCCCC1)C(N)=O` [Compound 13, 6-[(1S)-2-[bis(2-azaniumylethyl)carbamoyl]-1-{[(1S)-1-carbamoyl-2-cyclohexylethyl]carbamoyl}ethan-1-aminium]quinolin-1-ium tetrachloride], the “MPC8 (μg/mL) (Levofloxacin, PAM1723)” value [1] is reported as 1.25 µg/mL.
For `NCCN(CCN)C(=O)CC[C@H](N)C(=O)N/C(=C/c1ccc(C(F)(F)F)cc1)C(=O)Nc1cnc2ccccc2c1` [Compound 4, 3-[(1S)-3-[bis(2-azaniumylethyl)carbamoyl]-1-{[(1E)-1-carbamoyl-2-[4-(trifluoromethyl)phenyl]eth-1-en-1-yl]carbamoyl}propan-1-aminium]quinolin-1-ium tetrachloride], the “MPC8 (μg/mL) (Levofloxacin, PAM1723)” value [1] was 1.25 µg/mL and the “MPC16 (μg/mL) Azithromycin, KPM1004)” value [2] was 1.25 µg/mL.
For `Cl.Cl.Cl.Cl.Cl.NCCNCCN(CCN)C(=O)C[C@H](N)C(=O)N[C@@H](CCc1ccccc1)C(=O)Nc1cnc2ccccc2c1` [Compound 188, 3-[(2S)-2-[(1S)-2-[(2-azaniumylethyl)({2-[(2-azaniumylethyl)azaniumyl]ethyl})carbamoyl]-1-formamidoethan-1-aminium]-4-phenylbutanamido]quinolin-1-ium pentachloride], the “MPC8 (μg/mL) (Levofloxacin, PAM1723)” value [1] was 0.6 µg/mL and the “MPC16 (μg/mL) Azithromycin, KPM1004)” value [2] was 1.25 µg/mL.
For `CC[C@H]1OC(=O)[C@H](C)[C@@H](O[C@H]2C[C@@](C)(OC)[C@@H](O)[C@H](C)O2)[C@H](C)[C@@H](O[C@@H]2O[C@H](C)C[C@H](N(C)C)[C@H]2O)[C@](C)(O)C[C@@H](C)CN(C)[C@H](C)[C@@H](O)[C@]1(C)O` [Azithromycin, reference compound], the MIC [3] was 0.125 µg/mL (≈ 0.167 µM), the MIC ([2]; Klebsiella pneumoniae, read-out: Azithromycin MIC) was 32 µg/mL and the “Emax (ratio of MIC of pump overexpressing vs. pump lacking strains)” value ([2]; azithromycin, KPM1004 vs KPM1007) was 256.
For “3-[(1S)-3-[bis(2-azaniumylethyl)carbamoyl]-1-{[(1S,2R)-1-carbamoyl-2-hydroxy-2-[4-(trifluoromethyl)phenyl]ethyl]carbamoyl}propan-1-aminium]quinolin-1-ium tetrachloride [Compound 3]”, the pharmacokinetic profile [4] was “particularly attractive pharmacokinetic profiles”, the “MPC8 (μg/mL) (Levofloxacin, PAM1723)” value [1] was 1.25 µg/mL and the “MPC16 (μg/mL) Azithromycin, KPM1004)” value [2] was 1.25 µg/mL.
With `NCCN(CCN)C(=O)C[C@H](N)C(=O)N[C@@H](CCc1ccccc1)C(=O)Nc1cnc2ccccc2c1` [Compound 2, 3-[(1S)-2-[bis(2-azaniumylethyl)carbamoyl]-1-{[(1S)-1-carbamoyl-3-phenylpropyl]carbamoyl}ethan-1-aminium]quinolin-1-ium tetrachloride] the Cmax [4] was 2250 ng/mL, the clearance [4] was 217 mL/min/kg and the pharmacokinetic profile [4] was “particularly attractive pharmacokinetic profiles”.
Work on `CCOc1c(F)cc(NC(=O)[C@H](CCc2ccccc2)NC(=O)[C@@H](N)CC(=O)N(CCN)CCN)cc1F.Cl.Cl.Cl` [Compound 352, (1S)-2-[bis(2-azaniumylethyl)carbamoyl]-1-{[(1S)-1-[(4-ethoxy-3,5-difluorophenyl)carbamoyl]-3-phenylpropyl]carbamoyl}ethan-1-aminium trichloride] yielded a Cmax [4] of 2440 ng/mL and a clearance [4] of 177 mL/min/kg.
